PMC11542607 (RSC Advances, 2024)

Experiments:
[1] = system: HCT116 (colorectal carcinoma); assay: MTT cytotoxicity assay, HCT-116; assay type: cell-based; details: Homo sapiens, HCT-116, read-out: IC50 HCT-116
[2] = system: HeLa (cervical epithelioid carcinoma); assay: MTT cytotoxicity assay, HeLa; assay type: cell-based; details: Homo sapiens, read-out: IC50 HeLa
MCF-7 (breast cancer) = assay: MTT cytotoxicity assay, MCF-7; assay type: cell-based; details: Homo sapiens, MCF7, read-out: IC50 MCF-7
[3] = system: WI-38 normal fibroblast cell line; assay: Cytotoxicity towards normal human cells; assay type: cell-based; details: WI-38, read-out: IC50 WI-38
TOP-II = TOP-II (Homo sapiens, UniProt P11388); assay: TOP-II enzyme inhibition assay; assay type: biochemical
[4] = system: DMBA-induced breast cancer; assay: In vivo DMBA-induced breast cancer model; parameters: species or system mice; details: day 20; for Final tumor volume: untreated DMBA group approximately 2.4 mm^3
[5] = Body weight in DMBA-induced breast cancer model; assay type: in vivo; details: DMBA model mice; for Body weight at day 20: control 28.91 g, DMBA 35.2 g; for Body weight at start: start of 20 days period, control 20.51 g, DMBA 18.8 g
caspase-3 = assay: Caspase-3 immunostaining of mammary tissue in DMBA model; assay type: in vivo, mice; details: for caspase-3 positive cells: immunostaining, mean ± standard error (n = 5), control 4.5 ± 0.2, DMBA 0.5 ± 0.1
EGFR = EGFR (Homo sapiens, UniProt P00533); assay: EGFR enzyme inhibition assay; assay type: biochemical
aromatase (ARO) = target: T1, aromatase (ARO) (Homo sapiens, UniProt P11511); assay: Aromatase enzyme inhibition assay; assay type: biochemical
T1 sequence (P11511 1-503): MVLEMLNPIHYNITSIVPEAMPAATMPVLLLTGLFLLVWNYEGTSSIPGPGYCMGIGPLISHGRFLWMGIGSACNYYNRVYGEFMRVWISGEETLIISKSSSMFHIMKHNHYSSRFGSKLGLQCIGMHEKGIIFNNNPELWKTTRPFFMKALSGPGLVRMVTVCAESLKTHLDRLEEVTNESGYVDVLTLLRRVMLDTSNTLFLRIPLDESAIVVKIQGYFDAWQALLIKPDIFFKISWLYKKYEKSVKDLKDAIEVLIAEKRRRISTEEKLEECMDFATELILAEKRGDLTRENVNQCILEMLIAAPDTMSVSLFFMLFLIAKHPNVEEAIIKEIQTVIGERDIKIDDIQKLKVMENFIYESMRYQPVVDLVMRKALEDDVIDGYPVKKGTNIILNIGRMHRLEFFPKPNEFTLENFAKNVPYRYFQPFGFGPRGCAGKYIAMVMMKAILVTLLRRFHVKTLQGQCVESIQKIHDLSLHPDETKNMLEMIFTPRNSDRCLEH

HER-2 = HER-2 (Homo sapiens, UniProt P04626); assay: biochemical
MCF-7 cells = assay: Flow cytometry cell cycle analysis; assay type: cell-based, human

Sequence of TOP-II (P11388 whole entry): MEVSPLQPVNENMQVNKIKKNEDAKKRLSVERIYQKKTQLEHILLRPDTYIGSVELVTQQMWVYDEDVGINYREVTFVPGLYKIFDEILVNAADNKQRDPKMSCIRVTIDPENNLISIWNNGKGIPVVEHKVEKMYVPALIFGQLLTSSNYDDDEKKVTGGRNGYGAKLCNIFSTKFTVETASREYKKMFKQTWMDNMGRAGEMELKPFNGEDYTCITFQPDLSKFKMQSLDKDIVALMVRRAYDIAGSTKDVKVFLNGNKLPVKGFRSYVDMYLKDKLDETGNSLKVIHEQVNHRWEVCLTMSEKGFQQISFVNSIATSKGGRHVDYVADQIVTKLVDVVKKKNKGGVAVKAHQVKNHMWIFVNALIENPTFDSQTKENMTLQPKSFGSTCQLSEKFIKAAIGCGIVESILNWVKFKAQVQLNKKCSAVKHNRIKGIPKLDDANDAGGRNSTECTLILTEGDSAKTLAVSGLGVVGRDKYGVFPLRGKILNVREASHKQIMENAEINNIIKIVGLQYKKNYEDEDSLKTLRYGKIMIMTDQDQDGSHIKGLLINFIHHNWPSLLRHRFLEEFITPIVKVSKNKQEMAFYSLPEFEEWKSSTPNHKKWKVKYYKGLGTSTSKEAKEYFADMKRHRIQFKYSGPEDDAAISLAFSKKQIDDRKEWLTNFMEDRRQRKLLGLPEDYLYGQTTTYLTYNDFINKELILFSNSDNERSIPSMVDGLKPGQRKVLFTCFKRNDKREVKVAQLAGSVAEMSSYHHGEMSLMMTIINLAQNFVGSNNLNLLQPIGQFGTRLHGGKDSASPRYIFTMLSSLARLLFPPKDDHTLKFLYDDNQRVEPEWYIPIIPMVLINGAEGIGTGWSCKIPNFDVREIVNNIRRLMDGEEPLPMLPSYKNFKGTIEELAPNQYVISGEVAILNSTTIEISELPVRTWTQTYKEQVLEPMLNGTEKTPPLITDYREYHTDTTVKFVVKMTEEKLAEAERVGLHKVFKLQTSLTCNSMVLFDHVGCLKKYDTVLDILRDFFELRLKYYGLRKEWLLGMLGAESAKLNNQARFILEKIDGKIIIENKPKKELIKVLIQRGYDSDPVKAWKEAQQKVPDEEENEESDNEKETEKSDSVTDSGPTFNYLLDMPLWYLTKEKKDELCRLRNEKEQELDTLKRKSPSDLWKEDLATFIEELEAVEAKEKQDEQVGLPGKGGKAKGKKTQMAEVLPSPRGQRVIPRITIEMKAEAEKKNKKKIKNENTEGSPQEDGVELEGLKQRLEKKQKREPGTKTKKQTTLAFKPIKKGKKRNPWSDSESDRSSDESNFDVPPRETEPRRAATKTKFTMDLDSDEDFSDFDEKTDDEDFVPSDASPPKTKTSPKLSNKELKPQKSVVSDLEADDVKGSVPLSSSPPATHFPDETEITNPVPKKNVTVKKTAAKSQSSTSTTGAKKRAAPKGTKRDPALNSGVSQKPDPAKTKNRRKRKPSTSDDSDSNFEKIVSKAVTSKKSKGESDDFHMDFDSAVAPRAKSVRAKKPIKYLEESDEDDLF
Sequence of EGFR (P00533 25-1210): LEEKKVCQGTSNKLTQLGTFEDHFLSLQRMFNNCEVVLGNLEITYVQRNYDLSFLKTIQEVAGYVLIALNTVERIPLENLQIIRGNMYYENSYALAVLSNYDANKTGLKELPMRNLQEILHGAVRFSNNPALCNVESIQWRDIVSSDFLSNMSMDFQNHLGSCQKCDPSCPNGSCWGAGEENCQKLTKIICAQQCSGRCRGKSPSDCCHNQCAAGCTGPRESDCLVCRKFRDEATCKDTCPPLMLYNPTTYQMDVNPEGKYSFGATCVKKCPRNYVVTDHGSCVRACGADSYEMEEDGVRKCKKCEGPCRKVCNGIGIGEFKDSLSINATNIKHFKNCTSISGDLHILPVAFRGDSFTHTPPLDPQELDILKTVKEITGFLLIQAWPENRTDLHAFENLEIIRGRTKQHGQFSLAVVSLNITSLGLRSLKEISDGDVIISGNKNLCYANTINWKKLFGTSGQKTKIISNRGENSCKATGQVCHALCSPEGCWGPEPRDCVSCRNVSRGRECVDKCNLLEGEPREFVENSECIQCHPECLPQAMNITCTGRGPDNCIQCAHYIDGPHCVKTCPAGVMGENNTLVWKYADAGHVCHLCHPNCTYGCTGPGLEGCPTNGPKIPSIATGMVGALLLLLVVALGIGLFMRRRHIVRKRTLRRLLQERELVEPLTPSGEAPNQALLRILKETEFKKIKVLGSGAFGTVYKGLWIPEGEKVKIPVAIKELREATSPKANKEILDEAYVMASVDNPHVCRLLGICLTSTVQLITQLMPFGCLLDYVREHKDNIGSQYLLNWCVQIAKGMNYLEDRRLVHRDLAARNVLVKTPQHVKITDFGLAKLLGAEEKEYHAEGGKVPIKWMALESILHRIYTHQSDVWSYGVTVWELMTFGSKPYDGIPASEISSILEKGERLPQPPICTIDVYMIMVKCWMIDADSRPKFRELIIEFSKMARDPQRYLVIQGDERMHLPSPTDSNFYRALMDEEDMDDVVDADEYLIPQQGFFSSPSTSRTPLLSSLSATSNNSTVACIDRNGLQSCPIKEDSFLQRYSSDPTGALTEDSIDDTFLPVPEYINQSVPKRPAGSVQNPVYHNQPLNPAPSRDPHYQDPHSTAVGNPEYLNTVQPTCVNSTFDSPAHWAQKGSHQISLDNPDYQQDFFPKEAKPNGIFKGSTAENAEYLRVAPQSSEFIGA
Sequence of HER-2 (P04626 23-1255): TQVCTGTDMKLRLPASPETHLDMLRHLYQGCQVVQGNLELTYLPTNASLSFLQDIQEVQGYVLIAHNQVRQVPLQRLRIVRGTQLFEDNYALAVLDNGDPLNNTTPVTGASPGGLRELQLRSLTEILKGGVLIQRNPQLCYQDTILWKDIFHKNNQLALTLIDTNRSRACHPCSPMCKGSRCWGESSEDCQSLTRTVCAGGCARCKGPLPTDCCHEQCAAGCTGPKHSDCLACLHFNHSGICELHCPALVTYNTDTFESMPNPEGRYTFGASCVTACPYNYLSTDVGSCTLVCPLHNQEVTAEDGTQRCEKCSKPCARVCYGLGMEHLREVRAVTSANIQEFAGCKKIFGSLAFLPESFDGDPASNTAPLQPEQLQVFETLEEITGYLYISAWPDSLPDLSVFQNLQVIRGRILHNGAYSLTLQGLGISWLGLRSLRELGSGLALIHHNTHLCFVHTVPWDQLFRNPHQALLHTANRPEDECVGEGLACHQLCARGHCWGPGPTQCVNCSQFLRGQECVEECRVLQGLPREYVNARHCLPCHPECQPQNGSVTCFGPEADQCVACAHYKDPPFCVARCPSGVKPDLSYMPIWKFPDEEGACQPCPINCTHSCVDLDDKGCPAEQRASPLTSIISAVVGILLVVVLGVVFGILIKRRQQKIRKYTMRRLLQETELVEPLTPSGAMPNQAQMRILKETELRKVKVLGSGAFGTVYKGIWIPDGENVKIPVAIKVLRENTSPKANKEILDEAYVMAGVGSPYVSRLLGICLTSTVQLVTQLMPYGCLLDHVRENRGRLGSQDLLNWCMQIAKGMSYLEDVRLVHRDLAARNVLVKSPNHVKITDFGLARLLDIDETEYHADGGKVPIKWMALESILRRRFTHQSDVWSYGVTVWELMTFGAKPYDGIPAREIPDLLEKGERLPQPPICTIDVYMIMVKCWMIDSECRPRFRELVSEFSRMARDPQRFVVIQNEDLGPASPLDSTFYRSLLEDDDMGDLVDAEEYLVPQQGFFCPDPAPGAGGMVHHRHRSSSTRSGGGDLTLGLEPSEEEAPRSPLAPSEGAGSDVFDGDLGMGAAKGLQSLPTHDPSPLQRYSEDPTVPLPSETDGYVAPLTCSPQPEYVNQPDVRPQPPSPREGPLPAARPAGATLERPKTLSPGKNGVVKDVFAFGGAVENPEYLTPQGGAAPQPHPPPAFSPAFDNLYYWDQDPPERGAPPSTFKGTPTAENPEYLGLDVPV

Cc1ccc(-c2nnc(Sc3cc(C)nc4ncnn34)o2)cc1 [Compound 13b, 2-((5-Methyl-[1,2,4]triazolo[1,5-a]pyrimidin-7-yl)thio)-5-(p-tolyl)-1,3,4-oxadiazole]
IC50 [1]: 29.3 ± 2 µM | IC50 [2]: 39 ± 2.4 µM | IC50 (MCF-7 (breast cancer)): 27.8 ± 2 µM | IC50 [3]: 83.5 ± 4.5 µM

Cc1cc(Sc2nc(-c3cccc(Br)c3)c(C#N)c(=O)[nH]2)n2ncnc2n1 [Compound 11f, 4-(3-Bromophenyl)-2-((5-methyl-[1,2,4]triazolo[1,5-a]pyrimidin-7-yl)thio)-6-oxo-1,6-dihydropyrimidine-5-carbonitrile]
IC50 [1]: 31.2 ± 2.2 µM | IC50 [2]: 35.9 ± 2.2 µM | IC50 (MCF-7 (breast cancer)): 22.2 ± 1.6 µM | IC50 [3]: 77.3 ± 4.3 µM

Cc1cc(Sc2nc(-c3ccc(Cl)cc3)c(C#N)c(=O)[nH]2)n2ncnc2n1 [Compound 11b, 4-(4-Chlorophenyl)-2-((5-methyl-[1,2,4]triazolo[1,5-a]pyrimidin-7-yl)thio)-6-oxo-1,6-dihydropyrimidine-5-carbonitrile]
IC50 [1]: 12.6 ± 1 µM | IC50 [2]: 17.5 ± 1.4 µM | IC50 (MCF-7 (breast cancer)): 8.39 ± 0.6 µM | IC50 [3]: 56.2 ± 3 µM

COc1cccc2c1C(=O)c1c(O)c3c(c(O)c1C2=O)C[C@@](O)(C(=O)CO)C[C@@H]3O[C@H]1C[C@H](N)[C@H](O)[C@H](C)O1 [DOX, Doxorubicin, reference compound]
IC50 (TOP-II): 34 µM | Reduction in final tumor volume compared to untreated DMBA group [4]: 75% | Final tumor volume [4]: approximately 0.6 mm^3 | Body weight at day 20 [5]: 31.8 g | Body weight at start [5]: 19.8 g | caspase-3 positive cells (caspase-3): 4.0 ± 0.2 cells | Decrease of caspase-3 positive cells from the control (caspase-3; mouse, in vivo): 11% | Increase of caspase-3 positive cells from the DMBA group (caspase-3; mouse, in vivo): 700%

Cc1cc(Sc2nnc(-c3ccc(Br)cc3)o2)n2ncnc2n1 [Compound 13e, 2-(4-Bromophenyl)-5-((5-methyl-[1,2,4]triazolo[1,5-a]pyrimidin-7-yl)thio)-1,3,4-oxadiazole]
IC50 [1]: 55.1 ± 3.5 µM | IC50 [2]: 57.4 ± 3.2 µM | IC50 (MCF-7 (breast cancer)): 42.6 ± 2.4 µM | IC50 [3]: > 100 µM

Cc1cc(Sc2nnc(NC(=O)Nc3ccccc3)s2)n2ncnc2n1 [Compound 9a, 1-(5-((5-Methyl-[1,2,4]triazolo[1,5-a]pyrimidin-7-yl)thio)-1,3,4-thiadiazol-2-yl)-3-phenylurea]
IC50 [1]: 44.4 ± 2.6 µM | IC50 [2]: 25.2 ± 2 µM | IC50 (MCF-7 (breast cancer)): 37.2 ± 2.3 µM | IC50 [3]: 48.4 ± 2.6 µM

Cc1cc(Sc2nnc(-c3ccc(Cl)cc3)o2)n2ncnc2n1 [Compound 13d, 2-(4-Chlorophenyl)-5-((5-methyl-[1,2,4]triazolo[1,5-a]pyrimidin-7-yl)thio)-1,3,4-oxadiazole]
IC50 [1]: 24.8 ± 1.8 µM | IC50 [2]: 42.9 ± 2.5 µM | IC50 (MCF-7 (breast cancer)): 14.2 ± 1.1 µM | IC50 [3]: 66.1 ± 3.8 µM

Cc1ccc(-c2nc(Sc3cc(C)nc4ncnn34)[nH]c(=O)c2C#N)cc1 [Compound 11c, 2-((5-Methyl-[1,2,4]triazolo[1,5-a]pyrimidin-7-yl)thio)-6-oxo-4-(p-tolyl)-1,6-dihydropyrimidine-5-carbonitrile]
IC50 [1]: 21.5 ± 1.5 µM | IC50 [2]: 19.2 ± 1.6 µM | IC50 (MCF-7 (breast cancer)): 9.15 ± 0.7 µM | IC50 [3]: 45 ± 2.4 µM

COc1ccc(-c2nc(Sc3cc(C)nc4ncnn34)[nH]c(=O)c2C#N)cc1OC [Compound 11e, 4-(3,4-Dimethoxyphenyl)-2-((5-methyl-[1,2,4]triazolo[1,5-a]pyrimidin-7-yl)thio)-6-oxo-1,6-dihydropyrimidine-5-carbonitrile]
IC50 [1]: 8.89 ± 0.8 µM | IC50 [2]: 13.6 ± 1.1 µM | IC50 (MCF-7 (breast cancer)): 5.92 ± 0.3 µM | IC50 [3]: 60.3 ± 3.3 µM | IC50 (EGFR): 246 nM | IC50 (TOP-II): 36.7 µM | IC50 (aromatase (ARO)): 380 nM | IC50 (HER-2): 116 nM

Cc1cc(Sc2nnc(-c3ccccc3)o2)n2ncnc2n1 [Compound 13a, 2-((5-Methyl-[1,2,4]triazolo[1,5-a]pyrimidin-7-yl)thio)-5-phenyl-1,3,4-oxadiazole]
IC50 [1]: 15 ± 1.2 µM | IC50 [2]: 23.6 ± 1.9 µM | IC50 (MCF-7 (breast cancer)): 18.6 ± 1.3 µM | IC50 [3]: 91.4 ± 4.9 µM

COc1ccc(-c2nc(Sc3cc(C)nc4ncnn34)[nH]c(=O)c2C#N)cc1 [Compound 11d, 4-(4-Methoxyphenyl)-2-((5-methyl-[1,2,4]triazolo[1,5-a]pyrimidin-7-yl)thio)-6-oxo-1,6-dihydropyrimidine-5-carbonitrile]
IC50 [1]: 47.9 ± 2.7 µM | IC50 [2]: 63.4 ± 3.6 µM | IC50 (MCF-7 (breast cancer)): 34.6 ± 2.3 µM | IC50 [3]: 71.2 ± 3.9 µM

Cc1cc(Sc2nnc(-c3ccc([N+](=O)[O-])cc3)o2)n2ncnc2n1 [Compound 13c, 2-((5-Methyl-[1,2,4]triazolo[1,5-a]pyrimidin-7-yl)thio)-5-(4-nitrophenyl)-1,3,4-oxadiazole]
IC50 [1]: 6.1 ± 0.5 µM | IC50 [2]: 10.3 ± 0.9 µM | IC50 (MCF-7 (breast cancer)): 2.42 ± 0.1 µM | IC50 [3]: 38.6 ± 2.2 µM | IC50 (EGFR): 87 nM | IC50 (TOP-II): 31.6 µM | IC50 (aromatase (ARO)): 156 nM | Cell cycle distribution G2-M (MCF-7 cells; DMSO control 18.18): 10.32% | Cell cycle distribution S (MCF-7 cells; DMSO control 24.83): 37.01% | Cell cycle distribution G0-G1 (MCF-7 cells; DMSO control 56.99): 52.67% | Reduction in final tumor volume compared to untreated DMBA group [4]: 62.5% | Final tumor volume [4]: about 0.9 mm^3 | Body weight at day 20 [5]: 30.6 g | Body weight at start [5]: 20.2 g | caspase-3 positive cells (caspase-3): 2.3 ± 0.3 cells | Increase of caspase-3 positive cells from the DMBA group (caspase-3; mouse, in vivo): 360% | Share of the control's apoptotic activity (caspase-3) (caspase-3; mouse, in vivo): about 51% | IC50 (HER-2): 78 nM

Cc1ccc(NC(=O)Nc2nnc(Sc3cc(C)nc4ncnn34)s2)cc1 [Compound 9c, 1-(5-((5-Methyl-[1,2,4]triazolo[1,5-a]pyrimidin-7-yl)thio)-1,3,4-thiadiazol-2-yl)-3-(p-tolyl)urea]
IC50 [1]: 58.5 ± 3.3 µM | IC50 [2]: 51.9 ± 2.8 µM | IC50 (MCF-7 (breast cancer)): 46.1 ± 2.5 µM | IC50 [3]: 18.1 ± 1.3 µM

Cc1cc(N2CCN(C(=O)CN3CCOCC3)CC2)n2ncnc2n1 [Compound 7e, 1-(4-(5-Methyl-[1,2,4]triazolo[1,5-a]pyrimidin-7-yl)piperazin-1-yl)-2-morpholinoethanone]
IC50 [1]: 88.4 ± 4.5 µM | IC50 [2]: 78.5 ± 4.2 µM | IC50 (MCF-7 (breast cancer)): 84.7 ± 4.1 µM | IC50 [3]: 26.3 ± 1.9 µM

Cc1cc(Sc2nnc(NC(=O)Nc3ccc(Cl)cc3)s2)n2ncnc2n1 [Compound 9b, 1-(4-Chlorophenyl)-3-(5-((5-methyl-[1,2,4]triazolo[1,5-a]pyrimidin-7-yl)thio)-1,3,4-thiadiazol-2-yl)urea]
IC50 [1]: > 100 µM | IC50 [2]: 87.7 ± 4.4 µM | IC50 (MCF-7 (breast cancer)): > 100 µM | IC50 [3]: 64.7 ± 3.5 µM

COc1ccc(NC(=O)Nc2nnc(Sc3cc(C)nc4ncnn34)s2)cc1 [Compound 9d, 1-(4-Methoxyphenyl)-3-(5-((5-methyl-[1,2,4]triazolo[1,5-a]pyrimidin-7-yl)thio)-1,3,4-thiadiazol-2-yl)urea]
IC50 [1]: > 100 µM | IC50 [2]: 82.4 ± 4.1 µM | IC50 (MCF-7 (breast cancer)): 92.4 ± 4.4 µM | IC50 [3]: > 100 µM

Cc1cc(Sc2nc(-c3ccc(Br)cc3)c(C#N)c(=O)[nH]2)n2ncnc2n1 [Compound 11a, 4-(4-Bromophenyl)-2-((5-methyl-[1,2,4]triazolo[1,5-a]pyrimidin-7-yl)thio)-6-oxo-1,6-dihydropyrimidine-5-carbonitrile]
IC50 [1]: 41 ± 2.4 µM | IC50 [2]: 33.4 ± 2.3 µM | IC50 (MCF-7 (breast cancer)): 30.5 ± 2.1 µM | IC50 [3]: 75.9 ± 4.1 µM
